Results taken from ChEMBL document CHEMBL5465560, “Selectivity Literature for EUbOPEN Chemogenomic Library” (2024).

Columns and labels:
[1] = biological target: Rho-associated protein kinase 2 (Homo sapiens, UniProt O75116); test: Selectivity interaction (KinomeScan (DiscoverX)) EUB0000666a ROCK2; settings: at 10 µM
[2] = biological target: Mitogen-activated protein kinase kinase kinase kinase 5 (Homo sapiens) (UniProt Q9Y4K4); test: Selectivity interaction (Kinase panel (KiNativ target engagement assay in Jurkat cells)) EUB0001635a MAP4K5; assay type: cell-based; settings: Selectivity number of off-targets 0.0, Selectivity number of targets 233.0, Source Knowledge https://www.sciencedirect.com/science/article/pii/S2451945619300674?via%3Dihub, at 1 µM
Mitogen-activated protein kinase kinase kinase kinase 5 (Homo sapiens), sequence (Q9Y4K4 whole entry, looked up): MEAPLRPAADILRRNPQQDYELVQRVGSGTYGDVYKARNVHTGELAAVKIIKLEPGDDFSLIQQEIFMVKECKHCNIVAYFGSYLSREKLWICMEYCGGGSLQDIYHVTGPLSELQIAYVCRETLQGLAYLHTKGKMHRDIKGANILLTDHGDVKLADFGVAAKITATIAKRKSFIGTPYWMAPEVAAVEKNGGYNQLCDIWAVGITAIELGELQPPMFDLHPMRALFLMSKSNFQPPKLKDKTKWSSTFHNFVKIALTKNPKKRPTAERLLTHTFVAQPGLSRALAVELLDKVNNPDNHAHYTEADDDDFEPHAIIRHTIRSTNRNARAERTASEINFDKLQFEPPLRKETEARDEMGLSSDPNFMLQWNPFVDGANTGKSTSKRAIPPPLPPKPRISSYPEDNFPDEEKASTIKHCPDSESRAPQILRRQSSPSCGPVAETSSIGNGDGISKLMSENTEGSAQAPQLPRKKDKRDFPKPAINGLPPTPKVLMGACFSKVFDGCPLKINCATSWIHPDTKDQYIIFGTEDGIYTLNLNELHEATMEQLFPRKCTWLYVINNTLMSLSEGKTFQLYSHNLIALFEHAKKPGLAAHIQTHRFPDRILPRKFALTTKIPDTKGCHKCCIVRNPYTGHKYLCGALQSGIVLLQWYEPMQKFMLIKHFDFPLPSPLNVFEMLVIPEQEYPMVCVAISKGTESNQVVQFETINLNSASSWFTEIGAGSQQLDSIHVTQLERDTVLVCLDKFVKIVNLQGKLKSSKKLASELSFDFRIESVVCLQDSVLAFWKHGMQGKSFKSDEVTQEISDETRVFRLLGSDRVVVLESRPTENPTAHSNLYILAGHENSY

[3] = biological target: T1, MAP/microtubule affinity-regulating kinase 4 (Homo sapiens) (UniProt Q96L34); test: Selectivity interaction (Kinase panel (KiNativ target engagement assay in Jurkat cells)) EUB0001635a MARK4; assay type: cell-based; settings: Selectivity number of off-targets 0.0, Selectivity number of targets 233.0, Source Knowledge https://www.sciencedirect.com/science/article/pii/S2451945619300674?via%3Dihub, at 1 µM
T1 sequence (whole entry): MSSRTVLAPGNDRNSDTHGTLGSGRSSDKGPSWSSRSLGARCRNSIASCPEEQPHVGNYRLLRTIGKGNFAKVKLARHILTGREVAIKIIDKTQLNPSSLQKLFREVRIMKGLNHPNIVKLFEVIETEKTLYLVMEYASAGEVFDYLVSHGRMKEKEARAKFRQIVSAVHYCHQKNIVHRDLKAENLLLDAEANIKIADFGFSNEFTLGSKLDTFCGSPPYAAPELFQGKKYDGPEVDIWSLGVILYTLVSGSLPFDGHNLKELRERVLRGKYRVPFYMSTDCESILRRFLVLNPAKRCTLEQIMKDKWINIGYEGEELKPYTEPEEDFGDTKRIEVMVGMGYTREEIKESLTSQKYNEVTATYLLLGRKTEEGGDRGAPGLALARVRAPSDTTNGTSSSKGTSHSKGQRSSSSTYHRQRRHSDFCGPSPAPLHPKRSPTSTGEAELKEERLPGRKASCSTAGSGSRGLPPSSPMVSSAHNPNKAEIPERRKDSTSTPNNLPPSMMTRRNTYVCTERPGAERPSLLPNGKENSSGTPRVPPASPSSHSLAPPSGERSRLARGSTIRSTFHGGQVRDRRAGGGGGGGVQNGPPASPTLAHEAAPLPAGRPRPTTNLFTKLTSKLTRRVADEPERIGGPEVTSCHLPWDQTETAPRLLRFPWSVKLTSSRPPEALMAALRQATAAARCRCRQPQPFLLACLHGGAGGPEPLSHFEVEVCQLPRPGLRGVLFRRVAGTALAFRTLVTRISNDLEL

[4] = biological target: Receptor tyrosine-protein kinase erbB-4 (Homo sapiens, UniProt Q15303); settings: at 10 µM
Receptor tyrosine-protein kinase erbB-4, sequence (Q15303 whole entry): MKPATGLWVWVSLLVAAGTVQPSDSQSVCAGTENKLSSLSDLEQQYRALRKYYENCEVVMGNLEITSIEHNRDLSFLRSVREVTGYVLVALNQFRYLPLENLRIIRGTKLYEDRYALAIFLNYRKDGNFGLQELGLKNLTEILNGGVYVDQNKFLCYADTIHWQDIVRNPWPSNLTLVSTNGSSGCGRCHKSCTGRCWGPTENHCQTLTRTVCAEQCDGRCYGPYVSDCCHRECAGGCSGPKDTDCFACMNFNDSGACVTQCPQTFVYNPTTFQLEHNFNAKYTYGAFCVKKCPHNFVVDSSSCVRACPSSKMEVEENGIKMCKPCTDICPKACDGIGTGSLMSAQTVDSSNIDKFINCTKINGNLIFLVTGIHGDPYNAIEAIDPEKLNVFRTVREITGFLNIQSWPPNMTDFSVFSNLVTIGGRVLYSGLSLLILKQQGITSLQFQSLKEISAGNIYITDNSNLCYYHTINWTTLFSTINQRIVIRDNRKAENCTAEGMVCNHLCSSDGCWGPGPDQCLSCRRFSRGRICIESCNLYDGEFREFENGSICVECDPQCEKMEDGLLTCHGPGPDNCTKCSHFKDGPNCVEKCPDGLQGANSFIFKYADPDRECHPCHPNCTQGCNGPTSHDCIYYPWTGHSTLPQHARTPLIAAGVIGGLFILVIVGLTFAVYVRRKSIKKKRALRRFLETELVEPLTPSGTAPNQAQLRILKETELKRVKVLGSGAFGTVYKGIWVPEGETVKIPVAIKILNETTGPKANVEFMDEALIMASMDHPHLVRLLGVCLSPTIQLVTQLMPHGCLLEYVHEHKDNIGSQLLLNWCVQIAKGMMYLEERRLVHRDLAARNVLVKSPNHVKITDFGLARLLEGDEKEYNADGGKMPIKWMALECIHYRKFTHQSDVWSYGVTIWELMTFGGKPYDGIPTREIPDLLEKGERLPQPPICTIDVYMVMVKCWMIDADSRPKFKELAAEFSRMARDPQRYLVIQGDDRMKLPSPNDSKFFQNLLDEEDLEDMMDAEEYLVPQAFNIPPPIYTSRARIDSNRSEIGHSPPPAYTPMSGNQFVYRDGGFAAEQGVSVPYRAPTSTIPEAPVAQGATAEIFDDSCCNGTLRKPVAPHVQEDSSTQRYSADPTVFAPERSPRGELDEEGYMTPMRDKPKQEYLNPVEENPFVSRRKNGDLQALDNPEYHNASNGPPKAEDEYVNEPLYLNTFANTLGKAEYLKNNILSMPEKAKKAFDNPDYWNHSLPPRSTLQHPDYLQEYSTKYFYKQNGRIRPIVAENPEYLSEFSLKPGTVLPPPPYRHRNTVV

[5] = biological target: T2, Tyrosine-protein kinase ITK/TSK (Homo sapiens) (UniProt Q08881); settings: at 10 µM
T2 sequence (whole entry): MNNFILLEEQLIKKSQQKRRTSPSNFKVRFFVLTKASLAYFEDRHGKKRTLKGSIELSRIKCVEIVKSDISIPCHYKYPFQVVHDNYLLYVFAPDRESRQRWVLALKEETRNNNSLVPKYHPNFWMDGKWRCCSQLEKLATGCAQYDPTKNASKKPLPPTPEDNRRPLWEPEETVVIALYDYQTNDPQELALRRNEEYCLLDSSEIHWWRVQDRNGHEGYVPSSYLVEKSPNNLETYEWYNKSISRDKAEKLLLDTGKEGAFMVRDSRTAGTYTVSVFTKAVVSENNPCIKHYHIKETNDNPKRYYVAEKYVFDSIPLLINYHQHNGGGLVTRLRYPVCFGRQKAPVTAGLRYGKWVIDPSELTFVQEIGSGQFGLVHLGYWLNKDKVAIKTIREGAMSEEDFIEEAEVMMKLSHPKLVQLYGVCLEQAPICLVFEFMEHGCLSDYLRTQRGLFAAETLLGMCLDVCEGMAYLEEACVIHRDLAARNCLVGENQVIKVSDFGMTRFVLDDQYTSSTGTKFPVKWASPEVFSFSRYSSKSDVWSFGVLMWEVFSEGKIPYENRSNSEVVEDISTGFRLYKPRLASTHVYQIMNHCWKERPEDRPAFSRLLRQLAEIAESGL

[6] = biological target: Calcium/calmodulin-dependent protein kinase type II subunit delta (Homo sapiens) (UniProt Q13557); test: Selectivity interaction (KinomeScan (DiscoverX)) EUB0000092b CAMK2D; settings: at 10 µM
Calcium/calmodulin-dependent protein kinase type II subunit delta (Homo sapiens), sequence (Q13557 whole entry): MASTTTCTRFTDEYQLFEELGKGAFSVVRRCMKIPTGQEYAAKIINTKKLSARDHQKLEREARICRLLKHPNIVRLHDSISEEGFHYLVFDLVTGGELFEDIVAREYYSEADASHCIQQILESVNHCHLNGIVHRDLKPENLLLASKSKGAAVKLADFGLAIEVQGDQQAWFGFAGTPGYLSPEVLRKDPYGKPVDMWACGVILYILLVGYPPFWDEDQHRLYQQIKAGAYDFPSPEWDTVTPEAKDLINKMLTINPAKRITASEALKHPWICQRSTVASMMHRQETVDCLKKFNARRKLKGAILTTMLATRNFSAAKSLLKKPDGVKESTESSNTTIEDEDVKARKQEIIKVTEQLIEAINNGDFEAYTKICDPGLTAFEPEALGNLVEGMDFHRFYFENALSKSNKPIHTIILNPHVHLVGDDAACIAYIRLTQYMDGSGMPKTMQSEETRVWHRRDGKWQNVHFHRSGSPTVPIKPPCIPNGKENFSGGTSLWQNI

[7] = biological target: T3, Mitogen-activated protein kinase kinase kinase 3 (Homo sapiens) (UniProt Q99759); test: Selectivity interaction (KinomeScan (DiscoverX)) EUB0000655a MAP3K3; settings: at 10 µM
T3 sequence (whole entry): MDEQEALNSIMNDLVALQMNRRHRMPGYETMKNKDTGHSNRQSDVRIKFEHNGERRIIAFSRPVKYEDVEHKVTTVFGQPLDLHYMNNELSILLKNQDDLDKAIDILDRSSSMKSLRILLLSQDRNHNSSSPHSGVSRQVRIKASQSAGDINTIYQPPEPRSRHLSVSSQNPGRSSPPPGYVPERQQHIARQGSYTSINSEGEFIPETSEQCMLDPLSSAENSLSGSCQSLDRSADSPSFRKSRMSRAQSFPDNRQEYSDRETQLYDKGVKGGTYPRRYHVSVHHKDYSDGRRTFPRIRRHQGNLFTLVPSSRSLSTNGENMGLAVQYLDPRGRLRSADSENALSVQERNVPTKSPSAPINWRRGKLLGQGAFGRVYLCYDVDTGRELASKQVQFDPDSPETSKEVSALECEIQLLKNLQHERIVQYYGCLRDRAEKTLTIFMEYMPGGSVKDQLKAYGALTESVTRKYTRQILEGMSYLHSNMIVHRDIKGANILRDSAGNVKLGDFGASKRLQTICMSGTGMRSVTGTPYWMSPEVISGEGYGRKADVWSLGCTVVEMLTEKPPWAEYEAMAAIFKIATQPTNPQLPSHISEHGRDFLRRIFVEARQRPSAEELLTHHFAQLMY

[8] = biological target: Casein kinase I isoform epsilon (Homo sapiens, UniProt P49674); test: Selectivity interaction (Kinase panel (Z-LYTE Assay)) EUB0001632a CSNK1E; settings: at 10 µM
Casein kinase I isoform epsilon, sequence (P49674 whole entry, looked up, canonical isoform): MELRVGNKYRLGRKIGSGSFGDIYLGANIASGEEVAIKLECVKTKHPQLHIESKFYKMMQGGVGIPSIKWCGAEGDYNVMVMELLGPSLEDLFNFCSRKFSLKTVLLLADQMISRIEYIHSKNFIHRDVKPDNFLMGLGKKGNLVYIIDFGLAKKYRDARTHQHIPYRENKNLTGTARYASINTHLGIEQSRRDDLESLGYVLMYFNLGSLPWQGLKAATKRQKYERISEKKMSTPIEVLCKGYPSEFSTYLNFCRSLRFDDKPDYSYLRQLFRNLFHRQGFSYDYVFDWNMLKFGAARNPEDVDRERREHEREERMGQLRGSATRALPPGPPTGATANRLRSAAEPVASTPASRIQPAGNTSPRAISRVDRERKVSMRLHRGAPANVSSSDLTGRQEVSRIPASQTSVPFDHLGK

Rho-associated protein kinase 2, sequence (O75116 whole entry, looked up): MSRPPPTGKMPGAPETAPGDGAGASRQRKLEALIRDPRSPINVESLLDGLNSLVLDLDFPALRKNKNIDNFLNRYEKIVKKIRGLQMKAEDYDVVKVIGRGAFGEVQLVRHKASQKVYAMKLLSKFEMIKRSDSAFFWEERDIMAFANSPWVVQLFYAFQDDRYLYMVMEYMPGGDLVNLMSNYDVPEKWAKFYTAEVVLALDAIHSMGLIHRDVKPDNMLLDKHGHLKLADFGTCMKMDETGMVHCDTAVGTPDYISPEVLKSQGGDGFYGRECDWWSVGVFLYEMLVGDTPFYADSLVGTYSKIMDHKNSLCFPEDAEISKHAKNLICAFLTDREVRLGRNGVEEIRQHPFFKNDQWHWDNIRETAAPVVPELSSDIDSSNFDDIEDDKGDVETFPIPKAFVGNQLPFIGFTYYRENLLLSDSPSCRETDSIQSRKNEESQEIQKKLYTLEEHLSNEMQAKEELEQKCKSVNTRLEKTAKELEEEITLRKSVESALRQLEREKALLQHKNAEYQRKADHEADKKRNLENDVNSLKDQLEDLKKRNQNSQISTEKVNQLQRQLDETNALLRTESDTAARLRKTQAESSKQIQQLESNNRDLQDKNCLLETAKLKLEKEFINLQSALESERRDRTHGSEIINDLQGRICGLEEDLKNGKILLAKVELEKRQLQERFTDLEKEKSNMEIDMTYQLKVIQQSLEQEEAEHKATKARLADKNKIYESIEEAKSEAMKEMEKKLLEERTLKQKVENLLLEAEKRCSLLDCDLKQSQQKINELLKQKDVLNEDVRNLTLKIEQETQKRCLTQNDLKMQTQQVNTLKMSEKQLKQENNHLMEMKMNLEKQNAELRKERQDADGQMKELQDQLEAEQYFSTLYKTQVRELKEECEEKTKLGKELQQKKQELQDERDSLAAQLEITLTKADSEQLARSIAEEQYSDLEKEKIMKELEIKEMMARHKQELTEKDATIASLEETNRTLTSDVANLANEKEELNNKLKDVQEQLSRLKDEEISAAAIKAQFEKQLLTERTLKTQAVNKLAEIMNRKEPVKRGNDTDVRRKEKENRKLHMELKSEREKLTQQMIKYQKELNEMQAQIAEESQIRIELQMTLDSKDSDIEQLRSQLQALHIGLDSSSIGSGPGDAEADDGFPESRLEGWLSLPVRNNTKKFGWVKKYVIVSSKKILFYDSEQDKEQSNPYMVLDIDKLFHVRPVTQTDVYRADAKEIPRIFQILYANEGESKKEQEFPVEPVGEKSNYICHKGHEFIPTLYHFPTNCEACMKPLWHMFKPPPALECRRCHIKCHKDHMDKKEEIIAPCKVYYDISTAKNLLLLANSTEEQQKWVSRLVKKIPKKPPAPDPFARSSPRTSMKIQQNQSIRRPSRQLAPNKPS

Compound: O=C(NOC[C@H](O)CO)c1ccc(F)c(F)c1Nc1ccc(I)cc1F
- % of control [1]: 100%

Compound: C=CC(=O)Nc1ccc(C(=O)Nc2[nH]nc3c2CN(C(=O)N[C@H](CN(C)C)c2ccccc2)C3(C)C)cc1
- % of engagement [2]: 6%
- % of engagement [3]: 55.8%

Compound: CCN(CC)CCCCNc1ncc2cc(-c3cc(OC)cc(OC)c3)c(NC(=O)NC(C)(C)C)nc2n1
- % of control [4]: 100%

Compound: COCC(=O)NC/C=C/c1ccc2ncnc(Nc3ccc(Oc4ccc(C)nc4)c(C)c3)c2c1 [CP-724714]
- % of control [5]: 92%

Compound: CCC(=O)N1CCN(c2ccc(-n3c(=O)ccc4cnc5ccc(-c6cnc7ccccc7c6)cc5c43)cc2C(F)(F)F)CC1
- % of control [6]: 72%

Compound: CN(C)CCOc1ccc(-c2nc(-c3ccncc3)c(-c3ccc4c(c3)CC/C4=N\O)[nH]2)cc1
- % of control [7]: 76%

Compound: Cn1cc(-n2cnc3c(NCc4nc5cc(Cl)c(Cl)cc5[nH]4)nc(N4CCOCC4)nc32)cn1
- % of control [8]: 48.9%
